Assay results from patent US11793824B2, “Administration of nicotinamide mononucleotide in the treatment of disease” (Washington University, priority 2013, dated 2023).

Key:
[1] = target: T1, Sirt2 (Mus musculus, UniProt Q8VDQ8); assay: Oligodendrocyte formation from dissociated neurospheres with Sirt2 inhibitor; format: cell-based; conditions: AGK2 10 μM, 6-7 days of differentiation
T1 construct: endogenous in cells; host or cells: dissociated primary neurospheres (NSPCs) from postnatal mouse hippocampi, differentiated for 6-7 days
T1 sequence (Q8VDQ8 1-389): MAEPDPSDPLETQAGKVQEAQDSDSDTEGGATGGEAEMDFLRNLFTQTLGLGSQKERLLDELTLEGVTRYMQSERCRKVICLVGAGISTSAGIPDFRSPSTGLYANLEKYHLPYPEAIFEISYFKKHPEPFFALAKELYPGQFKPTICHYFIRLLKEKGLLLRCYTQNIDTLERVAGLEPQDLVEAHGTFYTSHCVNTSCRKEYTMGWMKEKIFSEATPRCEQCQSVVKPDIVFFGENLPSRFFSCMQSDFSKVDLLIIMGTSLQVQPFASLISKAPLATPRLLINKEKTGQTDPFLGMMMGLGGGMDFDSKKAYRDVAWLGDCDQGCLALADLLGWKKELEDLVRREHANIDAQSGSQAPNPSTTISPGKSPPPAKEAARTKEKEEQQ
Method: FK866 (Hasmann & Schemainda, 2003) (Sigma F8557), EX527 (Peck et al, 2010) (Cayman Chemical 10009798), and AGK2 (Outeiro et al, 2007) (Sigma A8231) were dissolved in DMSO and used to inhibit Nampt, Sirt1, and Sirt2 respectively.
Three to five days after their first passage, neurospheres were trypsinized, washed with dissociation medium, and plated at 150,000 cells per well in 24-well plates in differentiation medium [growth medium without FGF and EGF and with BDNF (5 ng/mL, Peprotech, 450-02) on glass coverslips coated with poly-D-lysine (50 ug/mL; Sigma) and laminin (20 ug/mL; BD Biosciences)]. 6-well plates were coated with poly-D-lysine (20 ug/mL) and laminin (10 ug/mL). To enrich for oligodendrocytes, PDGFαα (10 ng/ml, Peprotech 100-13A) was added to neurospheres at passage 2 and PDGFαα (2.5 ng/ml) and 3,3-,5-triiodo-L-thyronine (T3, 40 ng/ml, Sigma T4397) were added to differentiation medium. The percentage of oligodendrocyte precursor cells (OPCs) generated was analyzed after 2 d of differentiation, and the percentage of differentiated oligodendrocytes was analyzed after 6-7 d of differentiation.
The inventors acutely treated NSPCs with the selective inhibitor of Sirt2, AGK2, or the Sirt1 inhibitor, EX527. […] The inventors generated Sirt1/Sirt2-double knockout (Sirt1/2 DKO) neurospheres. […]

[2] = target: T2, Sirt1 (Mus musculus, UniProt Q923E4); assay: Oligodendrocyte formation from dissociated neurospheres with Sirt1 inhibitor; format: cell-based; conditions: EX527 80 μM, 6-7 days of differentiation
T2 construct: endogenous in cells; host or cells: dissociated primary neurospheres (NSPCs) from postnatal mouse hippocampi, differentiated for 6-7 days
T2 sequence (Q923E4 1-737): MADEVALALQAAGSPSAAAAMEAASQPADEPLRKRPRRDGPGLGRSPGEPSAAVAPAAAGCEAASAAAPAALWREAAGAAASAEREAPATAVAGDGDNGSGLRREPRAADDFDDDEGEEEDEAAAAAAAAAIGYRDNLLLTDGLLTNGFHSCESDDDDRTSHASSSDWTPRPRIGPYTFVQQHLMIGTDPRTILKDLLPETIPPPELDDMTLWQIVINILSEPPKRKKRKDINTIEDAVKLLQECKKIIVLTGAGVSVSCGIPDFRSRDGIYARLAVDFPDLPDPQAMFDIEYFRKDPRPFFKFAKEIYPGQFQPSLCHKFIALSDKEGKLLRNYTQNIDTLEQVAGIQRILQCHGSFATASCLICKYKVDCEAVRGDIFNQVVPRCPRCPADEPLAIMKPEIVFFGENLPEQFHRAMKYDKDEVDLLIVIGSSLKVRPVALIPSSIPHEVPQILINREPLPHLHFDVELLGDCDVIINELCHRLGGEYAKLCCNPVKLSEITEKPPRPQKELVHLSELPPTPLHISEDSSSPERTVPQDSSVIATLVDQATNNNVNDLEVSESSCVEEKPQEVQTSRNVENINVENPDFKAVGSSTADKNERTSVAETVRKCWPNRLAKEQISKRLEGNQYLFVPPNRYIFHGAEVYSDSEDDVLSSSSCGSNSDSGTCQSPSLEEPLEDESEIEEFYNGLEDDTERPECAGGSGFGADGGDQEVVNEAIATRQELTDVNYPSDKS
Excerpt: Data are presented as mean±s.e.m. *P<0.05. **P<0.01. ***P<0.001.

[3] = test system: NestinGFP+ cells; assay: Cuprizone model of demyelination and remyelination, fate of NestinGFP+ cells; format: in vivo, mouse
Method: Demyelination was induced by feeding 6 to 8-week-old mice a diet containing 0.2% cuprizone (bis-cyclohexanone oxaldihydrazone; Sigma C9012) mixed into a ground standard rodent chow for 4 to 5 weeks (Harlan Laboratories, TD.01453). To allow recovery from cuprizone treatment, food was replaced with standard chow for an additional 1 week.
All tissue sections were and cells incubated in blocking/permeabilization solution containing 10% normal goat serum, 1% BSA, and 0.3% Triton-X in PBS for 45 to 60 min prior to 24 or 48 h of incubation with primary antibodies in 5% normal goat serum and 0.1% Triton-X in PBS at 4° C. at the concentrations listed below. […], Alexa488, or Cy3 conjugated-secondary antibodies diluted in 2% normal goat serum, 1% BSA, and 0.1% Triton-X in PBS were added for 2 h at room temperature. Nuclei were stained with 4,6-diamidino-2-phenylindole (Sigma) for 10 min at room temperature.
For tissue sections, high-magnification (20×, 0.8DICII or 40× oil 1.3DICII) microscopic imaging was performed using a Zeiss Axioimage.Z1. Images were taken in z-stacks of 1 μm steps through the range of tissue section immunoreactivity. For the dorsolateral corner of the SVZ, images were taken from bregma 1.10 to −0.10 mm. For the corpus callosum, images were taken from bregma −1.06 to −2.54 mm. For the dentate gyrus, images were taken from bregma −1.34 to −3.64 mm. Quantification was performed blinded to genotype on 3-8 tissue sections per animal. Cell densities were estimated by the number of immunoreactive cells divided by the area of the structure, measured with ImageJ. Verification of colocalization was achieved by importing stacks of Z images into ImageJ and performing 3D rendering. For cells, 10 or 20× microscopic imaging was performed using a Zeiss Axioimage.Z1. Quantification was performed blinded to genotype on 2 to 3 fields of view per sample and treatment, from 3 to 9 independent samples.
The inventors employed the cuprizone model of demyelination and remyelination. Specifically, the inventors fed 6- to 9-week-old iNSPC-Nampt-KO and littermate control mice (iNSPC-GFP) a diet containing 0.2% cuprizone for 4-5 weeks, inducing deletion of Nampt in the adult Nestin+ population the week before starting the cuprizone diet (FIG. 20B) (Skripuletz et al, 2011). To ensure that analysis of progeny of adult Nestin+ cells, all mice in our cohort expressed Cre recombinase under the inducible Nestin promoter (Nestin-CreERT2) (Lagace et al, 2007) and the aforementioned Cre recombinase responsive GFP reporter transgene. The analysis focus was on lineage tracer marked (NestinGFP+) cells.

[4] = cited from earlier work
[5] = CC of control mice, cuprizone feeding
[6] = iNSPC-GFP CC, cuprizone feeding

N#C/C(=C\c1ccc(-c2cc(Cl)ccc2Cl)o1)C(=O)Nc1cccc2ncccc12 [AGK2]
oligodendrocyte formation (O4+) [1]: acutely suppressed oligodendrocyte formation

NC(=O)C1CCCc2c1[nH]c1ccc(Cl)cc21 (stereo not drawn) [EX527]
oligodendrocyte formation (O4+) [2]: acutely suppressed oligodendrocyte formation

O=C(NN=C1CCCCC1)C(=O)NN=C1CCCCC1 [cuprizone, bis-cyclohexanone oxaldihydrazone]
total number of NestinGFP+ cells in the iNSPC-GFP DG ([3]; 0.2% cuprizone diet 4-5 weeks): did not alter | NestinGFP+Apc+ double positive cells [3, 5]: 4% | NestinGFP+Sox10+ double positive cells [3, 5]: 16% | percentage of NestinGFP+ cells co-localized with Gfap+ ([3]; SGZ, cuprizone fed): 41% | percentage of NestinGFP+ cells co-localized with Nestin+ ([3]; SGZ, cuprizone fed): 35% | NestinGFP+Gfap+ double positive cells [3, 6]: 24% | percentage of NestinGFP+Nestin+ cells [3, 6]: 41%

O=C(O)c1cccnc1 [nicotinic acid]
skeletal muscle insulin resistance ([4]; chronic administration): can cause skeletal muscle insulin resistance | blood FFA levels ([4]; chronic treatment): tends to increase blood FFA levels | total cholesterol and triglyceride levels ([4]; chronic treatment): lowers total cholesterol and triglyceride levels
